The subject of series [1] is Plasmodium berghei. The method, then:
FIG. 2: In vivo measurement of parasite killing ability of Acriflavin.
This is further described hereinafter as Example 3.
The mice were divided into three groups (each group had 4 mice). For four consecutive days, group I was injected subcutaneously with 5 mg Acriflavin/kg body weight; group II received 5 mg Chloroquine/kg body weight and the group III received no drug and served as control in this experiment. Every alternate day the parasitemia from the tail blood was calculated. […] The mouse groups were kept under observation for 3 weeks after the drug treatment.

Series [2] concerns malaria parasite in vitro. As to the kind of experiment: Anti-malarial property of Acriflavin vs Proflavin in vitro (parasitemia at end of first life cycle). Format: cell-based, Plasmodium falciparum. To be noted: 100 nM and 250 nM drug concentrations. How it is done:
FIG. 1: Effect of Acriflavin on in vitro growth of 3D7 and W2 strains. Synchronized chloroquine susceptible 3D7 (A) and Chloroquine resistant W2 (B) parasites at ring stage (˜16-20 hrs) were treated with 20 nM to 100 nM of Acriflavin and parasitemia were counted at different time points (post-treatment) as indicated. (C) In each case, parasitemia were determined at the end of the first life cycle and plotted against different concentrations of Acriflavin/Proflavin. Each point/column represents the parasitemia of the mean of triplicates with standard deviations. […] Parasite growth inhibition was assessed by microscopy of giemsa stained smear at different time points as indicated.
Acriflavin is a mixture of 3,6-diamino-10-methylacridinium chloride (Trypflavin) and 3,6-diaminoacridine (Proflavin). […] After the Acriflavin treatment, the parasitemia was calculated in each case. Further, the anti-malarial property of Acriflavin vs Proflavin was also evaluated.
To determine the antimalarial activity of Acriflavin in vitro, synchronised ring stage, Chloroquine sensitive (3D7) and Chloroquine resistant (W2) P. falciparum (˜2.5% parasitemia) parasites were incubated with a range of Acriflavin concentrations (0-100 nM). After 40 hours of the Acriflavin treatment, the parasitemia was calculated in each case. […]

With `CCN(CC)CCCC(C)Nc1ccnc2cc(Cl)ccc12` (stereo not shown) [Chloroquine], the “parasitemia at the end of day 6” value in series [1] (5 mg/kg body weight subcutaneously, four consecutive days, tail blood, untreated control 16%) is 0.33%. Further, the survivability rate in series [1] (5 mg/kg s.c. for four days, 3 weeks observation after treatment, untreated control 25%) is on record as 75%.

For `Nc1ccc2cc3ccc(N)cc3nc2c1` [Proflavin, 3,6-diaminoacridine], in series [2], the “anti-malarial property against malaria parasite in vitro” value is on record as “ineffective”.

For the compound “mixture of 3,6-diamino-10-methylacridinium chloride (Trypflavin) and 3,6-diaminoacridine (Proflavin) [Acriflavin]”, in series [1] (mouse, in vivo), the “drug-related effects on body weight or general condition of animals” value was “No drug-related effects”.
